The values that follow come from ChEMBL document CHEMBL1139147, “Evaluation of fluorescently labeled xylopyranosides as probes for proteoglycan biosynthesis” (Bioorg Med Chem Lett, 2007).

Data set [1] has as its system T-24. Kind of data set: Suppression of glycosaminoglycan production in T24 cells at 0.1 mM. It counts as functional, cell-based. Conditions: Homo sapiens.
In data set [2] the test system is T-24. As to the kind of experiment: Suppression of proteoglycan production in T24 cells at 0.1 mM. It counts as functional, cell-based. The conditions noted are these: Homo sapiens.
Data set [3] in a line: Partition coefficient, log P assessed as retention time. It counts as physicochemical. Conditions: octanol/water.

Active and inactive are the calls of the source. The calls are words filed in the database; no cut-off is given here.

With `CN(C)c1cccc2c(S(=O)(=O)Oc3ccc4cc(O[C@@H]5OC[C@@H](O)[C@H](O)[C@H]5O)ccc4c3)cccc12`, the result in the data set with T-24 [1] and in the data set on T-24 [2] was Active. Besides, the Activity in data set [3] came out at 38.48 min.
In the case of `Oc1ccc2cc(O[C@@H]3OC[C@@H](O)[C@H](O)[C@H]3O)ccc2c1`, in data set [3], the Activity came out at 17.73 min.
Same read-out and setting: with `Oc1cc2ccc(O[C@@H]3OC[C@@H](O)[C@H](O)[C@H]3O)cc2cc1COCc1c2ccccc2cc2ccccc12` the figure was 43.4 min.
